# Results as given in patent US20020155519A1 (priority 1997, published 2002).
# Entries after “also recorded” stand apart in the source; their conditions may differ.
# Columns and labels:
# HBB = assay type: in vivo, human; settings: uncontrolled patient trials
# Method: Experiments have been conducted investigating the correlation of the presence of or increased presence of HBB with the clinical symptoms of three autoimmune diseases, and the results of instituting an antibiotic regimen in patients. […] All patients were cultured repeatedly to determine levels of HBB. The antibiotic treatment regimen was based on antibiotic sensitivities done on a pilot series of cultures and on the known properties of the organism, which clearly requires long-term, continuous treatment to address its very slow growth rate. This approach differs from usual treatment regimens for other bacterial infections. Neither the subjects nor the investigators were blind, and there was no untreated or placebo-treated control group.
# Antibiotic treatment consisted of one or more of the following three antibiotic regimens: (1) penicillin V, 500 mg four times a day, plus probenecid, 500 mg four times a day, plus Augmentin 500 mg four times a day; (2) ciprofloxacin, 500 mg three times a day; or (3) isoniazid, 100 mg three times a day. Most patients received a combination of two of the regimens concurrently.
# A regime or schedule is continued to optimize effectiveness, balanced against negative effects of treatment.
# [1] = tested on: extracellular exudate and the bacteria (HBB); test: Lectin binding to HBB exudate (slime) and bacteria; design: species or system human blood bacterium (HBB)
# Excerpt: The amount of the exudate produced is strongly influenced by or dependent upon the composition of the culture medium. The current medium formulae (L and O) have been designed to reduce slime production. In the original, crude medium, a centrifuged culture may consist of more than 10% of this gel by volume. In the L and O media, older cultures of HBB may develop a thin layer of gel that traps the cells and makes them adherent to the culture flask.
Molecule,clinical response in patients (in words) (HBB),binding of lectin to exudate and bacteria [1]
Cc1onc(-c2c(Cl)cccc2Cl)c1C(=O)N[C@@H]1C(=O)N2[C@@H]1SC(C)(C)[C@@H]2C(=O)O [dicloxacillin],A few patients have done better,–
penicillin,not effective for a sustained response in most patients; also recorded: short-term response in many,–
"peanut agglutinin: lectin binding other sugars (protein, UniProt P02872 24-273, looked up) Galactose-binding lectin: AETVSFNFNSFSEGNPAINFQGDVTVLSNGNIQLTNLNKVNSVGRVLYAMPVRIWSSATGNVASFLTSFSFEMKDIKDYDPADGIIFFIAPEDTQIPAGSIGGGTLGVSDTKGAGHFVGVEFDTYSNSEYNDPPTDHVGIDVNSVDSVKTVPWNSVSGAVVKVTVIYDSSTKTLSVAVTNDNGDITTIAQVVDLKAKLPERVKFGFSASGSLGGRQIHLIRSWSFTSTLITTTRRSIDNNEKKIMNMASA",–,do not appear to bind
